Data on 2 compounds can be found in PMC10542255, “A phase 1 trial of fuzuloparib in combination with apatinib for advanced ovarian and triple-negative breast cancer: efficacy, safety, pharmacokinetics and germline BRCA mutation analysis” (BMC Medicine, 2023).

For data set [1] the following is noted: human, in vivo. The method, then: The study used a standard 3 + 3 dose escalation design. The starting dose of fuzuloparib was 40 mg twice daily (bid) in combination with a fixed dose of apatinib at 250 mg once daily (qd); fuzuloparib could be dose escalated in 20 mg increments to up to 100 mg. An additional dose level of fuzuloparib 80 mg bid plus apatinib 375 mg qd was planned after assessment of the regimen of fuzuloparib 80 mg bid plus apatinib 250 mg qd. If dose escalation of fuzuloparib to 100 mg was completed, dose escalation for apatinib was initiated with two dose level planned: 375 mg qd and 500 mg qd (with fuzuloparib fixed at 100 mg bid). During dose escalation, the next-higher dose level was opened if less than one-third of patients in the previous dose level experienced a dose-limiting toxicity (DLT). Based on preliminary safety and efficacy data in the dose-escalation cohort, dose levels for PK-expansion were selected, with a total of 8–12 patients enrolled in each level. All patients received a single dose of oral fuzuloparib on day 1 and a single dose of oral apatinib on day 4 in cycle 0 (6 days in total), followed by continuous dosing of fuzuloparib and apatinib in 28-day cycles starting on cycle 1 day 1. Treatment continued until disease progression, intolerable toxicity, or patient withdrawal.
Pharmacokinetic sampling for single dose of fuzuloparib and apatinib was done on day 1 and day 4 (pre-dose and 0.5, 1, 2, 3, 4, 8, 12, 24, 48 h post-dose) of cycle 0, respectively; sampling for continuous dosing of the combination therapy was done on days 1 (pre-dose and 0.5, 1, 2, 3, 4, 8, 12, 24 h post-dose), 8 (pre-dose), 15 (pre-dose), 22 (pre-dose) of cycle 1, and day 1 (pre-dose and 0.5, 1, 2, 3, 4, 8, 12, 24 h post-dose) of cycle 2.
All enrolled patients who received at least one dose of study drug were included in the efficacy and safety analysis. […] Time-to-event endpoints were estimated using the Kaplan–Meier method, with the 95% CIs calculated using the Brookmeyer and Crowley method. PK parameters were calculated using the WinNonlin noncompartmental model. […]

Data set [2] concerns gBRCAmut, platinum-sensitive OC. The arrangement: method as in PMID 33558426. Conditions: fuzuloparib monotherapy, phase 2, gBRCAmut platinum-sensitive OC; cited from earlier work.

Turning to `N#CC1(c2ccc(NC(=O)c3cccnc3NCc3ccncc3)cc2)CCCC1` [apatinib], in data set [1], the “Dose dependence of apatinib plasma exposure (AUC0-∞)” value is listed as “increased in a dose-dependent manner” and the “Reduction of apatinib AUC0-24 h (cycle 2 day 1) vs AUC0-∞ after single apatinib monotherapy dose (cycle 0 day 4)” value is reported as 47.7%-65.0%.

Turning to `O=C(c1cc(Cc2n[nH]c(=O)c3ccccc23)ccc1F)N1CCn2nc(C(F)(F)F)nc2C1` [fuzuloparib], the “Dose dependence of fuzuloparib plasma exposure (AUC0-12 h)” value in data set [1] is reported as “increased in a dose-dependent manner”. For the same compound, in data set [2], the “Median PFS” value was 12.0 months and the ORR is 69.9%.
